Measured values published in ChEMBL document CHEMBL1156867, “Improved synthesis of a fluorogenic ceramidase substrate” (Bioorg Med Chem, 2010).
The source made the active and inactive calls. No cut-off for these calls is given here.

Key:
SK-OV-3 [1] = experiment: Activity of ceramidase in human SKOV3 cells assessed as formation of 7-(((3R,4S)-4-amino-3,5- dihydroxypentyl)oxy)-2H-chromen-2-one at 16 uM after 24 hrs at 37 degC by HPLC; format: cell-based
SK-OV-3 [2] = experiment: Activity of ceramidase in human SKOV3 cells assessed as formation of 7-(((3R,4S)-4-amino-3,5- dihydroxypentyl)oxy)-2H-chromen-2-one at 16 uM after 1 to 24 hrs at 37 degC by umbelliferone formation based fluorescence intensity assay; format: cell-based; settings: TDE = time-dependent effect
SK-OV-3 [3] = experiment: Activity of ceramidase in human SKOV3 cells assessed as formation of 7-(((3R,4S)-4-amino-3,5- dihydroxypentyl)oxy)-2H-chromen-2-one at 16 uM after 1 to 24 hrs at 37 degC by HPLC; format: cell-based; settings: TDE = time-dependent effect
[4] = Inhibition of pig liver ceramidase assessed as hydrolysis of N-((2S,3R)-1,3-dihydroxy-5-((2-oxo-2H-chromen-7-yl)oxy)pentan-2-yl)palmitamide; set-up: species or system Sus scrofa
[5] = Inhibition of rat liver ceramidase assessed as hydrolysis of N-((2S,3R)-1,3-dihydroxy-5-((2-oxo-2H-chromen-7-yl)oxy)pentan-2-yl)palmitamide
[6] = Inhibition of ceramidase in human SKOV3 cells assessed as hydrolysis of N-((2S,3R)-1,3-dihydroxy-5-((2-oxo-2H-chromen-7-yl)oxy)pentan-2-yl)palmitamide at 16 uM after 24 hrs at 37 degC by umbelliferone formation based fluorescence intensity assay; format: cell-based, SK-OV-3
[7] = Inhibition of ceramidase in human SKOV3 cells assessed as hydrolysis of N-((2S,3R)-1,3-dihydroxy-5-((2-oxo-2H-chromen-7-yl)oxy)pentan-2-yl)palmitamide at 16 uM after 24 hrs at 37 degC by HPLC; format: cell-based; settings: sk-ov-3

IC50 [4] [µM] | IC50 [5] [µM] | IC50 ([6]; Homo sapiens, SK-OV-3, 24 h, read-out: IC50) [µM] | IC50 ([6]; sk-ov-3) | IC50 [7] | IC50 ([7]; read-out: IC50) [µM] | SMILES | Activity (SK-OV-3 [1]) | Activity (SK-OV-3 [2]) | Activity (SK-OV-3 [3])
– | – | – | – | – | – | CCCCCCCCCCCCCCCC(=O)N[C@@H](CO)[C@H](O)CCOc1ccc2ccc(=O)oc2c1 | Active | tde | tde
76 | 71 | 28 | Dose-dependent effect | Dose-dependent effect | 24 | CCCCCCCC/C=C\CCCCCCCC(=O)NCCO [OLEOYLETHANOLAMIDE] | – | – | –
